According to PubChem BioAssay (NCI):
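Following 48 hours of exposure in 96-well plates, responses at five concentrations were used to interpolate endpoints linearly. The concentration for full growth arrest is given as TGI.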

Key:
Assay in all cases: NCI-60 cell line screen, 48 h
786-0 renal = test system: 786-0 renal
A549 NSCLC = test system: A549 NSCLC
ACHN renal = test system: ACHN renal
BT-549 breast = test system: BT-549 breast
CAKI-1 renal = test system: CAKI-1 renal
CCRF-CEM leukemia = test system: CCRF-CEM leukemia
COLO 205 colon = test system: COLO 205 colon
DU-145 prostate = test system: DU-145 prostate
EKVX NSCLC = test system: EKVX NSCLC
HCC-2998 colon = test system: HCC-2998 colon
HCT-116 colon = test system: HCT-116 colon
HCT-15 colon = test system: HCT-15 colon
HL-60(TB) leukemia = test system: HL-60(TB) leukemia
HOP-62 NSCLC = test system: HOP-62 NSCLC
HOP-92 NSCLC = test system: HOP-92 NSCLC
HS 578T breast = test system: HS 578T breast
HT29 colon = test system: HT29 colon
IGROV1 ovarian = test system: IGROV1 ovarian
K-562 leukemia = test system: K-562 leukemia
KM12 colon = test system: KM12 colon
LOX IMVI melanoma = test system: LOX IMVI melanoma
M14 melanoma = test system: M14 melanoma
MALME-3M melanoma = test system: MALME-3M melanoma
MCF7 breast = test system: MCF7 breast
MDA-MB-231 breast = test system: MDA-MB-231 breast
MDA-MB-435 = test system: MDA-MB-435
MDA-N = test system: MDA-N
MOLT-4 leukemia = test system: MOLT-4 leukemia
NCI-H226 lung = test system: NCI-H226 lung
NCI-H23 lung = test system: NCI-H23 lung
NCI-H460 lung = test system: NCI-H460 lung
NCI-H522 lung = test system: NCI-H522 lung
NCI/ADR-RES ovarian = test system: NCI/ADR-RES ovarian
OVCAR-4 ovarian = test system: OVCAR-4 ovarian
OVCAR-8 ovarian = test system: OVCAR-8 ovarian
PC-3 prostate = test system: PC-3 prostate
RPMI-8226 leukemia = test system: RPMI-8226 leukemia
RXF 393 renal = test system: RXF 393 renal
SF-268 CNS = test system: SF-268 CNS
SF-295 CNS = test system: SF-295 CNS
SF-539 CNS = test system: SF-539 CNS
SK-MEL-28 melanoma = test system: SK-MEL-28 melanoma
SK-MEL-5 melanoma = test system: SK-MEL-5 melanoma
SK-OV-3 ovarian = test system: SK-OV-3 ovarian
SN12C renal = test system: SN12C renal
SNB-19 CNS = test system: SNB-19 CNS
SNB-75 CNS = test system: SNB-75 CNS
SR leukemia = test system: SR leukemia
SW-620 colon = test system: SW-620 colon
T-47D breast = test system: T-47D breast
TK-10 renal = test system: TK-10 renal
UACC-257 melanoma = test system: UACC-257 melanoma
UACC-62 melanoma = test system: UACC-62 melanoma
UO-31 renal = test system: UO-31 renal
A498 renal = test system: A498 renal
OVCAR-3 ovarian = test system: OVCAR-3 ovarian
OVCAR-5 ovarian = test system: OVCAR-5 ovarian
SK-MEL-2 melanoma = test system: SK-MEL-2 melanoma
U251 CNS = test system: U251 CNS

## N#Cc1ccc(-c2nc(C#N)c(N)o2)cc1
786-0 renal
  TGI: > 10 µM
A549 NSCLC
  TGI: > 10 µM
ACHN renal
  TGI: > 10 µM
BT-549 breast
  TGI: > 10 µM
CAKI-1 renal
  TGI: > 10 µM
CCRF-CEM leukemia
  TGI: > 10 µM
COLO 205 colon
  TGI: > 10 µM
DU-145 prostate
  TGI: > 10 µM
EKVX NSCLC
  TGI: > 10 µM
HCC-2998 colon
  TGI: > 10 µM
HCT-116 colon
  TGI: > 10 µM
HCT-15 colon
  TGI: > 10 µM
HL-60(TB) leukemia
  TGI: > 10 µM
HOP-62 NSCLC
  TGI: > 10 µM
HOP-92 NSCLC
  TGI: > 10 µM
HS 578T breast
  TGI: > 10 µM
HT29 colon
  TGI: > 10 µM
IGROV1 ovarian
  TGI: > 10 µM
K-562 leukemia
  TGI: > 10 µM
KM12 colon
  TGI: > 10 µM
LOX IMVI melanoma
  TGI: > 10 µM
M14 melanoma
  TGI: > 10 µM
MALME-3M melanoma
  TGI: > 10 µM
MCF7 breast
  TGI: > 10 µM
MDA-MB-231 breast
  TGI: > 10 µM
MDA-MB-435
  TGI: > 10 µM
MDA-N
  TGI: > 10 µM
MOLT-4 leukemia
  TGI: > 10 µM
NCI-H226 lung
  TGI: > 10 µM
NCI-H23 lung
  TGI: > 10 µM
NCI-H460 lung
  TGI: > 10 µM
NCI-H522 lung
  TGI: > 10 µM
NCI/ADR-RES ovarian
  TGI: > 10 µM
OVCAR-4 ovarian
  TGI: > 10 µM
OVCAR-8 ovarian
  TGI: > 10 µM
PC-3 prostate
  TGI: > 10 µM
RPMI-8226 leukemia
  TGI: > 10 µM
RXF 393 renal
  TGI: > 10 µM
SF-268 CNS
  TGI: > 10 µM
SF-295 CNS
  TGI: > 10 µM
SF-539 CNS
  TGI: > 10 µM
SK-MEL-28 melanoma
  TGI: > 10 µM
SK-MEL-5 melanoma
  TGI: > 10 µM
SK-OV-3 ovarian
  TGI: > 10 µM
SN12C renal
  TGI: > 10 µM
SNB-19 CNS
  TGI: > 10 µM
SNB-75 CNS
  TGI: > 10 µM
SR leukemia
  TGI: > 10 µM
SW-620 colon
  TGI: > 10 µM
T-47D breast
  TGI: > 10 µM
TK-10 renal
  TGI: > 10 µM
UACC-257 melanoma
  TGI: > 10 µM
UACC-62 melanoma
  TGI: > 10 µM
UO-31 renal
  TGI: > 10 µM

## CC1(C)N=C(N)N=C(N)N1c1cccc(OCc2cccc(N)c2)c1
786-0 renal
  TGI: > 100 µM
A498 renal
  TGI: > 100 µM
A549 NSCLC
  TGI: > 100 µM
ACHN renal
  TGI: > 100 µM
BT-549 breast
  TGI: > 100 µM
CAKI-1 renal
  TGI: > 100 µM
CCRF-CEM leukemia
  TGI: > 100 µM
COLO 205 colon
  TGI: > 100 µM
DU-145 prostate
  TGI: > 100 µM
EKVX NSCLC
  TGI: > 100 µM
HCT-116 colon
  TGI: > 100 µM
HCT-15 colon
  TGI: > 100 µM
HL-60(TB) leukemia
  TGI: 47.5 µM
HOP-62 NSCLC
  TGI: > 100 µM
HOP-92 NSCLC
  TGI: > 100 µM
HS 578T breast
  TGI: > 100 µM
HT29 colon
  TGI: > 100 µM
IGROV1 ovarian
  TGI: > 100 µM
K-562 leukemia
  TGI: > 100 µM
KM12 colon
  TGI: > 100 µM
LOX IMVI melanoma
  TGI: > 100 µM
M14 melanoma
  TGI: > 100 µM
MALME-3M melanoma
  TGI: > 100 µM
MCF7 breast
  TGI: > 100 µM
MDA-MB-231 breast
  TGI: > 100 µM
MDA-MB-435
  TGI: > 100 µM
MDA-N
  TGI: > 100 µM
MOLT-4 leukemia
  TGI: > 100 µM
NCI-H226 lung
  TGI: > 100 µM
NCI-H23 lung
  TGI: > 100 µM
NCI-H460 lung
  TGI: > 100 µM
NCI-H522 lung
  TGI: > 100 µM
NCI/ADR-RES ovarian
  TGI: > 100 µM
OVCAR-3 ovarian
  TGI: > 100 µM
OVCAR-4 ovarian
  TGI: > 100 µM
OVCAR-5 ovarian
  TGI: > 100 µM
OVCAR-8 ovarian
  TGI: > 100 µM
PC-3 prostate
  TGI: > 100 µM
RPMI-8226 leukemia
  TGI: > 100 µM
RXF 393 renal
  TGI: > 100 µM
SF-268 CNS
  TGI: > 100 µM
SF-295 CNS
  TGI: > 100 µM
SF-539 CNS
  TGI: > 80.4 µM
SK-MEL-2 melanoma
  TGI: > 100 µM
SK-MEL-28 melanoma
  TGI: > 100 µM
SK-MEL-5 melanoma
  TGI: > 100 µM
SK-OV-3 ovarian
  TGI: > 100 µM
SN12C renal
  TGI: > 100 µM
SNB-19 CNS
  TGI: > 100 µM
SNB-75 CNS
  TGI: > 100 µM
SW-620 colon
  TGI: > 100 µM
T-47D breast
  TGI: > 100 µM
TK-10 renal
  TGI: > 100 µM
U251 CNS
  TGI: > 100 µM
UACC-257 melanoma
  TGI: 55 µM
UACC-62 melanoma
  TGI: > 100 µM
UO-31 renal
  TGI: > 100 µM
